Assay [1] has as its target T1, human androgen receptor (AR) (Homo sapiens, UniProt P10275).
T1 construct: expressed in transfected cells; host or cells: CHO K1
T1 sequence (P10275 1-920): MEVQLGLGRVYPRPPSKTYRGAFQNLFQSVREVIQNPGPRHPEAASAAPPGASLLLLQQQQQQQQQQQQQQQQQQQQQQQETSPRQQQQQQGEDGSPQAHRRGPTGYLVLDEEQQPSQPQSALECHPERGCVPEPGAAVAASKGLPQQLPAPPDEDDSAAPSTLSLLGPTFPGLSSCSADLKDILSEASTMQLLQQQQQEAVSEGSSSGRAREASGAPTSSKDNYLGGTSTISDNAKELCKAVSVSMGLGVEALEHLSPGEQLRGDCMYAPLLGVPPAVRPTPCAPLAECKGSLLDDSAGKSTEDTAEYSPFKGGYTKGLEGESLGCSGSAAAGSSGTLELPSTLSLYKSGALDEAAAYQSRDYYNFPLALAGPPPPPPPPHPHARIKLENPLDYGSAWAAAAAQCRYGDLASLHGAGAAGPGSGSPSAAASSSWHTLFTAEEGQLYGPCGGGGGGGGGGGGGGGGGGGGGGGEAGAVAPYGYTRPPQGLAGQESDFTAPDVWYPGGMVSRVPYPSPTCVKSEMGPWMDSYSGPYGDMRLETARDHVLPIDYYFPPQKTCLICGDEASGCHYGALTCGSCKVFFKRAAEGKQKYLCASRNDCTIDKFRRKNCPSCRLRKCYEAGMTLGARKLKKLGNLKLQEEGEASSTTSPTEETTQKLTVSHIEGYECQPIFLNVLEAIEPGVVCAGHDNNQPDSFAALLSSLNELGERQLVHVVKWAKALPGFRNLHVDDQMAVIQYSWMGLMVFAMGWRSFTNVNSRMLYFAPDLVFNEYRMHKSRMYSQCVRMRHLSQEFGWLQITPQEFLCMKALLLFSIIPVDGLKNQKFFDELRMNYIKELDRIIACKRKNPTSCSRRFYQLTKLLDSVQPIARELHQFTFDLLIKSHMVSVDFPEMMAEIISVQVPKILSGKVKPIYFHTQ
Put plainly: CHO steroid receptor reporter assay, AR / MMTV-Luc. Type of assay: cell-based. The source says: (§1) For monitoring both human steroid receptor agonistic as well as antagonistic activity of compounds, Chinese hamster ovary (CHO) K1 cells stably co-transfected with the specific human steroid receptor and its respective reporter construct were used (as previously described).
(§2) For human glucocorticoid receptor (GR)-specific activity CHO-GR B4.8 cells containing both recombinant human GR as well as a reporter construct consisting of the mouse mammary tumor virus (MMTV) promotor and the luciferase reporter gene, were used. Compound was incubated alone (in the agonistic setup) or with 50 nM dexamethasone (in the antagonistic setup) overnight. Hereafter, 200 µl medium was removed and 50 µl luciferine substrate solution from the LucLite luminescence kit (Packard, Meriden, USA) was added. […] Percentage maximal antagonistic efficacy was related to the maximal antagonistic efficacy of reference GR antagonist Org 34116. Similar procedures were followed for the other human steroid receptor assays (for more detailed information see Supportive Information) (SI text).
(§3) Similar procedures were followed for the other human steroid receptor assays containing combinations of human progesterone receptor B (PR-B) and MMTV-Luc, human androgen receptor (AR) and MMTV-Luc, human chimeric glucocorticoid-mineralocorticoid receptor (GGM, Trapp et al. (1994), Neuron 13: 1457) and MMTV-Luc, human estrogen receptor alpha (ERα) and rat oxytocin-Luc (45), and human estrogen receptor beta (ERβ) and rat oxytocin-Luc, respectively.
(In general: A reporter such as luciferase makes a cellular process visible.)

Assay [2] deals with T2, human estrogen receptor alpha (ERα) (Homo sapiens, UniProt P03372).
T2 construct: expressed in transfected cells; host or cells: CHO K1
T2 sequence (P03372 1-595): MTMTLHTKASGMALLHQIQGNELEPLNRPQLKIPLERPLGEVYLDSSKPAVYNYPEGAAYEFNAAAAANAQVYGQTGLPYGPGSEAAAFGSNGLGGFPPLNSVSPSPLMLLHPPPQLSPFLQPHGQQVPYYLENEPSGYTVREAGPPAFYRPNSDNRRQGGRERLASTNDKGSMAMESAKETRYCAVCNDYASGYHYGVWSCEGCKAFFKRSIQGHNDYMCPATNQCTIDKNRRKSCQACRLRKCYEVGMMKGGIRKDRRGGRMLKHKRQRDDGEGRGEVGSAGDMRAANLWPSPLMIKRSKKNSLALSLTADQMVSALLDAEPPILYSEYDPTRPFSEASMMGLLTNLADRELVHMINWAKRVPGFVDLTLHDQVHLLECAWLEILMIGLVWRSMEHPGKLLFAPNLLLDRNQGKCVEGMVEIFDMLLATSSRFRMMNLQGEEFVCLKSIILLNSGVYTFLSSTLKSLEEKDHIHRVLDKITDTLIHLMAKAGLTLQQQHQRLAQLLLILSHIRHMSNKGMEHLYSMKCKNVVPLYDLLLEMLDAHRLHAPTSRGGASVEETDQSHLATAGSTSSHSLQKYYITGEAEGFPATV
Put plainly: CHO steroid receptor reporter assay, ERα / rat oxytocin-Luc. Type of assay: cell-based.
Excerpt: as §1, §2, §3

Bounds are passed on as bounds.

In general, EC50 refers to the concentration that produces a half-maximal response. One may read the IC50 as the midpoint of a concentration-inhibition curve. In the case of `Cc1nnsc1C(=O)N[C@H]1CCN2c3ccc(C#N)cc3[C@@H](C)c3ccccc3[C@@H]2C1` [Org 214007-0], the EC50 in assay [1] (read-out: EC50 (agonist)) and in assay [2] (read-out: EC50 (agonist)) was > 0.1 µM each time. Further, the IC50 in assay [1] (read-out: IC50 (antagonist)) and in assay [2] (read-out: IC50 (antagonist)) was > 1 µM throughout. Moreover, the figures for the “% agonist potency” value in assay [1] (relative to reference compound) and in assay [2] (relative to reference compound) were <0.13% and <0.01%, respectively. Moreover, the results for the “% antagonist potency” value in assay [1] (relative to reference compound) and in assay [2] (relative to reference compound) were <3.83% and <1.86%, respectively.

For the origin of these results see publication PMC3495945, “Org 214007-0: A Novel Non-Steroidal Selective Glucocorticoid Receptor Modulator with Full Anti-Inflammatory Properties and Improved Therapeutic Index” (PLoS ONE, 2012).
